Assay results taken from BindingDB's records for doi:10.1016/0960-894X(95)00174-R (1995).
Blank lines part the entries; values can stand above or below the molecule they belong to.

How the values were obtained:
[1] = target: Platelet-activating factor receptor (Oryctolagus cuniculus); assay: In vitro inhibitory activity against PAF-induced aggregation of rabbit platelets
[2] = target: Platelet-activating factor receptor (Oryctolagus cuniculus); assay: In vitro ability to displace [3H]PAF from PAF receptor in rabbit platelet membranes

Structure (SMILES): CCCCCCCCCCCCCCCCCCNC(=O)OC[C@H]1C[C@H](COC(=O)N(Cc2cccc[n+]2CC)C(=O)c2ccc(OC)cc2)S1 [1-Ethyl-2-{[(4-methoxy-benzoyl)-(4-octadecylcarbamoyloxymethyl-thietan-2-ylmethoxycarbonyl)-amino]-methyl}-pyridinium; chloride]
- IC50 [1]: 84 nM
- Ki [2]: 34 nM

Structure (SMILES): CCCCCCCCCCCCCCCCCCNC(=O)OC[C@H]1C[C@H](COC(=O)N(Cc2cccc[n+]2CC)C(C)=O)C1 [2-{[Acetyl-(3-octadecylcarbamoyloxymethyl-cyclobutylmethoxycarbonyl)-amino]-methyl}-1-ethyl-pyridinium; iodide]
- Ki [2]: 4.3 nM

Structure (SMILES): CCCCCCCCCCCCCCCCCCNC(=O)OC[C@H]1C[C@H](COC(=O)N(Cc2cccc[n+]2CC)C(C)=O)N1C(C)=O [2-{[Acetyl-((2R,4R)-1-acetyl-4-octadecylcarbamoyloxymethyl-azetidin-2-ylmethoxycarbonyl)-amino]-methyl}-1-ethyl-pyridinium; chloride]
- Ki [2]: 35 nM

Structure (SMILES): CCCCCCCCCCCCCCCCOC[C@H]1C[C@H](COC(=O)N(Cc2cccc[n+]2CC)C(C)=O)S1 [2-{[Acetyl-((2R,4R)-4-hexadecyloxymethyl-thietan-2-ylmethoxycarbonyl)-amino]-methyl}-1-ethyl-pyridinium; chloride]
- IC50 [1]: 52 nM
- Ki [2]: 20 nM

Structure (SMILES): CCCCCCCCCCCCCCCCCCNC(=O)OC[C@H]1C[C@H](COC(=O)N(Cc2cccc[n+]2CC)C(C)=O)S1 [2-{[Acetyl-((2R,4R)-4-octadecylcarbamoyloxymethyl-thietan-2-ylmethoxycarbonyl)-amino]-methyl}-1-ethyl-pyridinium; chloride]
- IC50 [1]: 57 nM
- Ki [2]: 4.3 nM

Structure (SMILES): CCCCCCCCCCCCCCCCOC[C@H]1C[C@@H](COC(=O)N(Cc2cccc[n+]2CC)C(C)=O)O1 [2-{[Acetyl-((2S,4R)-4-hexadecyloxymethyl-oxetan-2-ylmethoxycarbonyl)-amino]-methyl}-1-ethyl-pyridinium; iodide]
- IC50 [1]: 95 nM
- Ki [2]: 21 nM

Continued, values first:

- IC50 [1]: 61 nM
- Ki [2]: 9.8 nM
Structure (SMILES): CCCCCCCCCCCCCCCCCCNC(=O)OC[C@H]1C[C@@H](COC(=O)N(Cc2cccc[n+]2CC)C(C)=O)S1 [2-{[Acetyl-((2S,4R)-4-octadecylcarbamoyloxymethyl-thietan-2-ylmethoxycarbonyl)-amino]-methyl}-1-ethyl-pyridinium; chloride]

- Ki [2]: 9.8 nM
Structure (SMILES): CCCCCCCCCCCCCCCCNC(=O)OC[C@@H]1C[C@@H](COC(=O)N(Cc2cccc[n+]2CC)C(C)=O)S1 [2-{[Acetyl-((2S,4S)-4-hexadecylcarbamoyloxymethyl-thietan-2-ylmethoxycarbonyl)-amino]-methyl}-1-ethyl-pyridinium; chloride]

- IC50 [1]: 57 nM
- Ki [2]: 15 nM
Structure (SMILES): CCCCCCCCCCCCCCCCOC[C@@H]1C[C@@H](COC(=O)N(Cc2cccc[n+]2CC)C(C)=O)O1 [2-{[Acetyl-((2S,4S)-4-hexadecyloxymethyl-oxetan-2-ylmethoxycarbonyl)-amino]-methyl}-1-ethyl-pyridinium; iodide]
